Laboratory results: ChEMBL document CHEMBL3228019, “Aminoglycoside antibiotics. 2. N,N-Dialkylkanamycins” (1979)
≈ marks a conversion by molar mass, not a printed value.

Assays:
Type in all cases: functional
[1] = tested on: Klebsiella pneumoniae; experiment: Antibacterial activity against Klebsiella pneumoniae 9977 assessed as growth inhibition measured after overnight incubation by two-fold broth dilution method
[2] = tested on: Escherichia coli; experiment: Antibacterial activity against Escherichia coli 20732 expressing aminoglycoside-2''-nucleotidyltransferase assessed as growth inhibition measured after overnight incubation by two-fold broth dilution method
[3] = tested on: Escherichia coli; experiment: Antibacterial activity against Escherichia coli 20665 expressing aminoglycoside-3'-phosphotransferase-1 assessed as growth inhibition measured after overnight incubation by two-fold broth dilution method
[4] = tested on: Staphylococcus aureus; experiment: Antibacterial activity against Staphylococcus aureus 20240 expressing aminoglycoside-3'-phosphotransferase-4 assessed as growth inhibition measured after overnight incubation by two-fold broth dilution method
[5] = tested on: Pseudomonas aeruginosa; experiment: Antibacterial activity against Pseudomonas aeruginosa 20610 expressing aminoglycoside-3'-phosphotransferase and aminoglycoside-3-acetyltransferase-1 assessed as growth inhibition measured after overnight incubation by two-fold broth dilution method
[6] = tested on: Pseudomonas aeruginosa; experiment: Antibacterial activity against Pseudomonas aeruginosa 20653 expressing aminoglycoside-3'-phosphotransferase-4 assessed as growth inhibition measured after overnight incubation by two-fold broth dilution method
[7] = tested on: Pseudomonas aeruginosa; experiment: Antibacterial activity against Pseudomonas aeruginosa 20897 expressing aminoglycoside-3'-phosphotransferase-1 and aminoglycoside-6'-acetyltransferase assessed as growth inhibition measured after overnight incubation by two-fold broth dilution method
[8] = tested on: Pseudomonas aeruginosa; experiment: Antibacterial activity against kanamycin A/B impermeable Pseudomonas aeruginosa 21509 assessed as growth inhibition measured after overnight incubation by two-fold broth dilution method
[9] = tested on: Escherichia coli; experiment: Antibacterial activity against Escherichia coli 21218 expressing aminoglycoside-6'-acetyltransferase assessed as growth inhibition measured after overnight incubation by two-fold broth dilution method
[10] = tested on: Providencia rettgeri; experiment: Antibacterial activity against Proteus rettgeri 9637 assessed as growth inhibition measured after overnight incubation by two-fold broth dilution method
[11] = tested on: Enterobacter cloacae; experiment: Antibacterial activity against Enterobacter cloacae 20364 expressing aminoglycoside-3'-phosphotransferase-1 assessed as growth inhibition measured after overnight incubation by two-fold broth dilution method
[12] = tested on: Enterobacter cloacae; experiment: Antibacterial activity against Enterobacter cloacae 9656 assessed as growth inhibition measured after overnight incubation by two-fold broth dilution method
[13] = tested on: Escherichia coli; experiment: Antibacterial activity against Escherichia coli 9632 assessed as growth inhibition measured after overnight incubation by two-fold broth dilution method
[14] = tested on: Providencia rettgeri; experiment: Antibacterial activity against Proteus rettgeri 21207 expressing aminoglycoside-2'-acetyltransferase assessed as growth inhibition measured after overnight incubation by two-fold broth dilution method
[15] = tested on: Staphylococcus aureus; experiment: Antibacterial activity against Staphylococcus aureus 9537 assessed as growth inhibition measured after overnight incubation by two-fold broth dilution method
[16] = tested on: Pseudomonas aeruginosa; experiment: Antibacterial activity against Pseudomonas aeruginosa 9843a assessed as growth inhibition measured after overnight incubation by two-fold broth dilution method

| MIC [1] [µg/mL] | MIC [2] [µg/mL] | MIC [3] [µg/mL] | MIC [4] [µg/mL] | MIC [5] [µg/mL] | MIC [6] [µg/mL] | MIC [7] [µg/mL] | MIC [8] [µg/mL] | MIC [9] [µg/mL] | MIC [10] [µg/mL] | MIC [11] [µg/mL] | MIC [12] [µg/mL] | MIC [13] [µg/mL] | MIC [14] [µg/mL] | MIC [15] [µg/mL] | MIC [16] [µg/mL] | Compound |
| --- | --- | --- | --- | --- | --- | --- | --- | --- | --- | --- | --- | --- | --- | --- | --- | --- |
| > 125 | > 125 | > 125 | > 125 | > 125 | > 125 | > 125 | > 125 | 125 (≈ 244 µM) | > 125 | > 125 | > 125 | > 125 | > 125 | > 125 | > 125 | CNC[C@H]1O[C@H](O[C@H]2[C@H](O)[C@@H](O[C@H]3O[C@H](CO)[C@@H](O)[C@H](NC)[C@H]3O)[C@H](N)C[C@@H]2N)[C@H](O)[C@@H](O)[C@@H]1O |
| > 125 | > 125 | > 125 | > 125 | > 125 | > 125 | > 125 | > 125 | > 125 | 32 (≈ 59.2 µM) | > 125 | 125 (≈ 231 µM) | > 125 | 4 (≈ 7.4 µM) | 63 (≈ 117 µM) | > 125 | CCNC[C@H]1O[C@H](O[C@H]2[C@H](O)[C@@H](O[C@H]3O[C@H](CO)[C@@H](O)[C@H](NCC)[C@H]3O)[C@H](N)C[C@@H]2N)[C@H](O)[C@@H](O)[C@@H]1O |
| 4 (≈ 7.82 µM) | 63 (≈ 123 µM) | 63 (≈ 123 µM) | 8 (≈ 15.6 µM) | 8 (≈ 15.6 µM) | 8 (≈ 15.6 µM) | 8 (≈ 15.6 µM) | 16 (≈ 31.3 µM) | 63 (≈ 123 µM) | 16 (≈ 31.3 µM) | 63 (≈ 123 µM) | 8 (≈ 15.6 µM) | 16 (≈ 31.3 µM) | 63 (≈ 123 µM) | 4 (≈ 7.82 µM) | 8 (≈ 15.6 µM) | CNC[C@H]1O[C@H](O[C@H]2[C@H](O)[C@@H](O[C@H]3O[C@H](CO)[C@@H](O)[C@H](NC)[C@H]3O)[C@H](N)C[C@@H]2N)[C@H](N)[C@@H](O)[C@@H]1O |
| 63 (≈ 117 µM) | 125 (≈ 233 µM) | 63 (≈ 117 µM) | 32 (≈ 59.6 µM) | 32 (≈ 59.6 µM) | 32 (≈ 59.6 µM) | 32 (≈ 59.6 µM) | 32 (≈ 59.6 µM) | 63 (≈ 117 µM) | 63 (≈ 117 µM) | 125 (≈ 233 µM) | 63 (≈ 117 µM) | 32 (≈ 59.6 µM) | 125 (≈ 233 µM) | 32 (≈ 59.6 µM) | 32 (≈ 59.6 µM) | N[C@@H]1C[C@H](N)[C@@H](O[C@H]2O[C@@H]3CNC(=O)O[C@H]3[C@H](O)[C@H]2O)[C@H](O)[C@H]1O[C@H]1O[C@H](CO)[C@@H](O)[C@@H]2NC(=O)O[C@@H]12 |

| Compound | MIC [1] [µg/mL] | MIC [2] [µg/mL] | MIC [3] [µg/mL] | MIC [4] [µg/mL] | MIC [5] [µg/mL] | MIC [6] [µg/mL] | MIC [7] [µg/mL] | MIC [8] [µg/mL] | MIC [9] [µg/mL] | MIC [10] [µg/mL] | MIC [11] [µg/mL] | MIC [12] [µg/mL] | MIC [13] [µg/mL] | MIC [14] [µg/mL] | MIC [15] [µg/mL] | MIC [16] [µg/mL] |
| --- | --- | --- | --- | --- | --- | --- | --- | --- | --- | --- | --- | --- | --- | --- | --- | --- |
| NC[C@H]1O[C@H](O[C@H]2[C@H](O)[C@@H](O[C@H]3O[C@H](CO)[C@@H](O)[C@H](N)[C@H]3O)[C@H](N)C[C@@H]2N)[C@H](N)[C@@H](O)[C@@H]1O [BEKANAMYCIN] | 0.25 (≈ 0.517 µM) | 32 (≈ 66.2 µM) | > 125 | > 125 | 32 (≈ 66.2 µM) | > 125 | > 125 | > 125 | 32 (≈ 66.2 µM) | 0.5 (≈ 1.03 µM) | > 125 | 2 (≈ 4.14 µM) | 2 (≈ 4.14 µM) | 32 (≈ 66.2 µM) | 0.5 (≈ 1.03 µM) | 63 (≈ 130 µM) |
| NC[C@@H]1O[C@@H](O[C@H]2[C@H](O)[C@@H](O[C@H]3O[C@H](CO)[C@@H](O)[C@H](N)[C@H]3O)[C@H](N)C[C@@H]2N)[C@@H](O)[C@H](O)[C@H]1O [KANAMYCIN A] | 0.25 (≈ 0.516 µM) | 125 (≈ 258 µM) | > 125 | > 125 | 32 (≈ 66 µM) | > 125 | > 125 | > 125 | > 125 | 0.5 (≈ 1.03 µM) | > 125 | 4 (≈ 8.26 µM) | 4 (≈ 8.26 µM) | 8 (≈ 16.5 µM) | 1 (≈ 2.06 µM) | 63 (≈ 130 µM) |
